Where two headings read alike, the source gives them in different places.

The test system of series [1] is DENV-R2A (Rluc-expressing DENV, serotype 2 strain 16681). Put plainly: microbe, parasite or virus in culture. As to conditions: for activity at 50 µM: Dengue virus, Huh7.5, 48 h; for inhibitory activity against DENV-R2A (SAR, in words) / antiviral activity against DENV-R2A (SAR, in words): 50 μM; for antiviral activity against DENV-R2A (SAR, in words): NPP3C analogues. Type of series: cell-based, Dengue virus.

In series [2] the test system is ZIKV-R2A (strain FSS13025). Put plainly: microbe, parasite or virus in culture. It is filed as cell-based. As to conditions: Zika virus, Huh7.5, 48 h, read-out: ZIKV-R2A replication (fold DMSO) Mean.
Series [3] concerns Huh7.5 cells. Put plainly: Cell viability, CellTiter-Glo luminescent assay. As to conditions: for Cell viability (fold DMSO) Mean: deconvolution screen, singletons, uninfected Huh7.5.
The mark [4] stands for this setting: read-out: DENV-R2A replication (fold DMSO) Mean, deconvolution screen, singletons, 50 µM, Huh7.5, 2 days postinfection.
Setting [5] is: read-out: DENV-R2A replication (Fold DMSO), 6A1HI analogues, test concentration = 50 µM, Huh7.5 cells.
[6] abbreviates: read-out: DENV-R2A replication (Fold DMSO), Table S3, NPP3C analogues, 50 µM, Huh7.5, 2 days postinfection.
Setting [7] is: read-out: DENV-R2A replication (fold DMSO), Table 2, 6A1HI analogues, 50 μM, Huh7.5, 2 days postinfection.
Where [8] appears, read: 6A1HI analogues, test concentration = 50 µM, Huh7.5 cells.
Where [9] appears, read: Table 2, 6A1HI analogues, 50 μM, Huh7.5, 2 days.
Setting [10] is: Table S3, NPP3C analogues, 50 µM, Huh7.5.
Where [11] appears, read: read-out: DENV-R2A replication (fold DMSO), Table 1, NPP3C analogues, 50 μM, Huh7.5, 2 days postinfection.
[12] abbreviates: Table 1, NPP3C analogues, 50 μM, Huh7.5, 2 days.
[13] abbreviates: Table S3, NPP3C analogues, 50 µM, Huh7.5, 2 days postinfection.

Take `Nc1cccc(Cl)c1Cl` [PS-4077, Nc1cccc(Cl)c1Cl]: the activity at 50 µM in series [1] (setting [4]) turned out to be 96%; in series [2], 120%. In addition, the “Cell viability (fold DMSO) Mean” value in series [3] (50 µM) amounted to 0.97 fold DMSO.
Taken in the same sequence, the figures for `Cn1cc(Br)c2c(N)ncnc21` [EK-0205, Cn1cc(Br)c2c(N)ncnc12] were 51%, 63% and 0.87 fold DMSO.
The matching figures for `Clc1ccc2nccnc2c1` [PS-3410, Clc1ccc2nccnc2c1]: 95%, 108% and 1.20 fold DMSO.
Taken in the same sequence, the figures for `Cc1onc(-c2ccccc2)c1CN` [PS-4242, Cc1onc(c1CN)c2ccccc2] were 91%, 103% and 0.92 fold DMSO.
With `CNC(=O)c1cn(C)c2ccccc12` [Compound 9T-1495, CNC(=O)c1cn(C)c2ccccc12], the activity at 50 µM in series [1] (setting [4]) was found to be 103%; in series [2], 98%.
As for `CC(=O)c1ccc2cn(C)nc2c1` [Compound 4], the “inhibitory activity against DENV-R2A (SAR, in words)” value (“inhibitory activity against DENV-R2A” below) in series [1] (6A1HI analogues) is “loss of inhibitory activity”. The activity at 50 µM in series [1] (setting [5]) worked out at 97%; in series [1] (setting [6]) it was 105%; in series [1] (setting [7]) it was 97%. Moreover, the “Cell viability (Fold DMSO)” value stood at 0.75 Fold DMSO in series [3] (setting [8]), 0.75 fold DMSO in series [3] (setting [9]) and 0.96 Fold DMSO in series [3] (setting [10]).
In the case of `O=C(NNc1ccccc1)c1ccncc1` [Compound 54], the activity at 50 µM in series [1] (setting [5]) amounted to 106%; in series [1] (setting [11]), 37%. Besides, the “antiviral activity against DENV-R2A (SAR, in words)” value (shortened to “antiviral activity against DENV-R2A”) in series [1] is “retains little activity, if any”. Besides, the “Cell viability (Fold DMSO)” value is reported as 0.95 Fold DMSO in series [3] (setting [8]), 0.67 fold DMSO in series [3] (setting [12]) and 0.67 Fold DMSO in series [3] (setting [10]).
As for `O=C(c1ccccc1)c1cccnc1` [Compound 33], the “DENV-R2A replication (Fold DMSO)” value amounted to 0.95 Fold DMSO in series [1] (setting [8]) and 1.14 Fold DMSO in series [1] (setting [13]). Moreover, the “Cell viability (Fold DMSO)” value worked out at 0.89 Fold DMSO in series [3] (setting [8]) and 0.95 Fold DMSO in series [3] (setting [10]).
As for `O=C(Nc1ccncc1)c1ccccc1` [Compound 28], the “DENV-R2A replication (Fold DMSO)” value in series [1] (setting [8]) amounted to 0.09 Fold DMSO; in series [1] (setting [13]), 1.05 Fold DMSO. Besides, the “Cell viability (Fold DMSO)” value is reported as 0.48 Fold DMSO in series [3] (setting [8]) and 1.05 Fold DMSO in series [3] (setting [10]).
With `N#CC(Cc1cccnc1)C(=O)Nc1ccccc1` (stereo not drawn) [Compound 68], the “DENV-R2A replication (Fold DMSO)” value in series [1] (setting [8]) is 1.02 Fold DMSO; in series [1] (setting [13]), 1.79 Fold DMSO. The “Cell viability (Fold DMSO)” value in series [3] (setting [8]) came out at 1.03 Fold DMSO; in series [3] (setting [10]), 0.93 Fold DMSO.
As to `CC(=O)c1ccc2[nH]c(=O)[nH]c2c1` [Compound 76], the “inhibitory activity against DENV-R2A” value in series [1] (6A1HI analogues) is reported as “loss of inhibitory activity”. For the same compound, the activity at 50 µM in series [1] (setting [5]) and in series [1] (setting [7]) was 87% each time. Also, the entries for the “Cell viability (Fold DMSO)” value in series [3] (setting [8]) and in series [3] (setting [9]) were 0.98 Fold DMSO and 0.98 fold DMSO, respectively.
Consider `O=C(NC1CC1)c1ccc(C(F)(F)F)nc1` [Compound 41], for which the “DENV-R2A replication (Fold DMSO)” value was determined as 1.13 Fold DMSO in series [1] (setting [8]) and 1.24 Fold DMSO in series [1] (setting [13]). Also, the “Cell viability (Fold DMSO)” value in series [3] (setting [8]) stood at 0.98 Fold DMSO; in series [3] (setting [10]), 0.90 Fold DMSO.
In the case of `O=C(Nc1ccccc1)N1CCNCC1` [Compound 7], the activity at 50 µM in series [1] (setting [5]) stood at 105%; in series [1] (setting [11]), 82%; in series [1] (setting [7]) it was 105%.
For the compound `O=C1CCc2ccccc21` [PS-5770, O=C1CCc2ccccc12], the activity at 50 µM in series [1] (setting [4]) and in series [2] was 103% in each case.
As for `Nc1cccc(-c2cccnc2)c1` [Compound 10], the results for the “DENV-R2A replication (Fold DMSO)” value in series [1] (setting [8]) and in series [1] (setting [13]) were 1.00 Fold DMSO and 1.04 Fold DMSO, respectively. In addition, the “Cell viability (Fold DMSO)” value in series [3] (setting [8]) and in series [3] (setting [10]) was 0.93 Fold DMSO each time.
Turning to `NCc1ccc2cn[nH]c2c1` [Compound 6], the activity at 50 µM in series [1] (setting [5]) was determined as 96%; in series [1] (setting [6]), 55%; in series [1] (setting [7]), 96%. Further, the “Cell viability (Fold DMSO)” value in series [3] (setting [8]) was 0.76 Fold DMSO; in series [3] (setting [9]), 0.76 fold DMSO; in series [3] (setting [10]), 0.77 Fold DMSO.
As for `O=C(Nc1ccccc1)c1ccc(C(F)(F)F)nc1` [Compound 62], the “DENV-R2A replication (Fold DMSO)” value in series [1] (setting [8]) turned out to be 0.93 Fold DMSO; in series [1] (setting [13]) it was 0.71 Fold DMSO. Moreover, the “Cell viability (Fold DMSO)” value came to 1.03 Fold DMSO in series [3] (setting [8]) and 0.79 Fold DMSO in series [3] (setting [10]).
`O=C(Nc1ccccc1Cl)c1cccnc1` [Compound 29]: the activity at 50 µM in series [1] (setting [5]) is 55%; in series [1] (setting [11]), 99%. Moreover, the “Cell viability (Fold DMSO)” value in series [3] (setting [8]) turned out to be 0.96 Fold DMSO; in series [3] (setting [12]), 0.95 fold DMSO; in series [3] (setting [10]) it was 0.95 Fold DMSO.
As for `CC(Nc1ccccc1)c1cccnc1` (stereo not drawn) [Compound 56], the activity at 50 µM worked out at 114% in series [1] (setting [5]) and 147% in series [1] (setting [11]). Further, in series [1], the “antiviral activity against DENV-R2A” value is “retains little activity, if any”. Moreover, the results for the “Cell viability (Fold DMSO)” value in series [3] (setting [8]), in series [3] (setting [12]) and in series [3] (setting [10]) were 0.98 Fold DMSO, 0.94 fold DMSO and 0.94 Fold DMSO, respectively.
For `Nc1ccc(C(=O)Nc2ccccc2)cc1` [Compound 61], the “DENV-R2A replication (Fold DMSO)” value in series [1] (setting [8]) is 1.09 Fold DMSO; in series [1] (setting [13]) it was 0.98 Fold DMSO. Moreover, the “Cell viability (Fold DMSO)” value in series [3] (setting [8]) worked out at 0.83 Fold DMSO; in series [3] (setting [10]) it was 0.98 Fold DMSO.
On to `Oc1ccc2[nH]ncc2c1` [Compound 18], for which the activity at 50 µM was 106% in series [1] (setting [5]), 101% in series [1] (setting [6]) and 106% in series [1] (setting [7]). The entries for the “Cell viability (Fold DMSO)” value in series [3] (setting [8]), in series [3] (setting [9]) and in series [3] (setting [10]) were 0.98 Fold DMSO, 0.98 fold DMSO and 0.95 Fold DMSO, respectively.
With `CC(=O)c1cccc2cn[nH]c12` [Compound 9], the “inhibitory activity against DENV-R2A” value in series [1] (6A1HI analogues) is “inhibitory activity was completely lost”. In addition, the activity at 50 µM is 90% in series [1] (setting [5]), 107% in series [1] (setting [6]) and 90% in series [1] (setting [7]). Moreover, the “Cell viability (Fold DMSO)” value is recorded as 1.03 Fold DMSO in series [3] (setting [8]), 1.03 fold DMSO in series [3] (setting [9]) and 0.96 Fold DMSO in series [3] (setting [10]).
Consider `Nc1cccc(NC(=O)c2cccnc2)c1` [Compound 55], for which the activity at 50 µM in series [1] (setting [5]) was found to be 134%; in series [1] (setting [11]), 75%. The entries for the “Cell viability (Fold DMSO)” value in series [3] (setting [8]), in series [3] (setting [12]) and in series [3] (setting [10]) were 1.08 Fold DMSO, 0.96 fold DMSO and 0.96 Fold DMSO, respectively.
Regarding `c1ccc(NCc2cccnc2)cc1` [Compound 63], the activity at 50 µM worked out at 81% in series [1] (setting [5]) and 138% in series [1] (setting [11]). Besides, the “antiviral activity against DENV-R2A” value in series [1] was “retains little activity, if any”.
`NC(=O)c1ccc2cn[nH]c2c1` [Compound 75]: the activity at 50 µM in series [1] (setting [5]) and in series [1] (setting [7]) was 106% each time. Moreover, the figures for the “Cell viability (Fold DMSO)” value in series [3] (setting [8]) and in series [3] (setting [9]) were 0.99 Fold DMSO and 0.99 fold DMSO, respectively.
Consider `OCc1ccc2cn[nH]c2c1` [Compound 3], for which the activity at 50 µM in series [1] (setting [5]) was 110%; in series [1] (setting [6]), 89%; in series [1] (setting [7]), 110%. Also, the “Cell viability (Fold DMSO)” value in series [3] (setting [8]) was 0.93 Fold DMSO; in series [3] (setting [9]) it was 0.93 fold DMSO; in series [3] (setting [10]), 0.94 Fold DMSO.
As for `O=C(NNC(=O)c1ccncc1)Nc1ccccc1` [Compound 69], the “DENV-R2A replication (Fold DMSO)” value in series [1] (setting [8]) was determined as 0.98 Fold DMSO; in series [1] (setting [13]) it was 1.32 Fold DMSO. Moreover, the “Cell viability (Fold DMSO)” value in series [3] (setting [8]) was 1.02 Fold DMSO; in series [3] (setting [10]), 0.88 Fold DMSO.
In the case of `O=C(Nc1cccc(B(O)O)c1)c1cccnc1` [Compound 52], the figures for the activity at 50 µM in series [1] (setting [5]), in series [1] (setting [11]) and in series [1] (setting [7]) were 115%, 107% and 115%, respectively.
`O=C(Nc1ccc(C(F)(F)F)cc1)c1cccnc1` [Compound 65]: the activity at 50 µM in series [1] (setting [5]) was determined as 115%; in series [1] (setting [11]) it was 98%. For the same compound, the “Cell viability (Fold DMSO)” value in series [3] (setting [8]) came out at 1.17 Fold DMSO; in series [3] (setting [12]), 0.87 fold DMSO; in series [3] (setting [10]) it was 0.87 Fold DMSO.
In the case of `CC(=O)c1ccc2c(c1)OCO2` [Compound 42], in series [1] (6A1HI analogues), the “inhibitory activity against DENV-R2A” value was “loss of inhibitory activity”. The results for the activity at 50 µM in series [1] (setting [5]), in series [1] (setting [6]) and in series [1] (setting [7]) were 107%, 153% and 107%, respectively. In addition, the “Cell viability (Fold DMSO)” value in series [3] (setting [8]) turned out to be 0.93 Fold DMSO; in series [3] (setting [9]) it was 0.93 fold DMSO; in series [3] (setting [10]), 1.15 Fold DMSO.

Values taken from publication PMC9933715 (Antimicrobial Agents and Chemotherapy, 2023).
